Where only a bound is given, the exact number is not on record here.

The assay deals with T1, Drak2 (Homo sapiens, UniProt O94768).
T1 sequence (O94768 1-372): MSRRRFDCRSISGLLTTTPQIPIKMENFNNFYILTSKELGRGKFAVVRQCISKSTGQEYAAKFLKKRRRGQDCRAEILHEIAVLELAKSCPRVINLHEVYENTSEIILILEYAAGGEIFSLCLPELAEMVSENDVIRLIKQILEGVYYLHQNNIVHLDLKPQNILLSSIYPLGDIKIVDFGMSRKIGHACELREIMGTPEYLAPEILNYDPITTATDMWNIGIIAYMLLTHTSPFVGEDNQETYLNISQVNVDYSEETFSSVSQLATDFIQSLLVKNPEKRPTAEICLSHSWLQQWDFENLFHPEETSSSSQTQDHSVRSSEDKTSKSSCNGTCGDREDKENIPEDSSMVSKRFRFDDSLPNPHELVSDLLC
The assay is described as follows: Drak2 activity test, ADP-Glo kinase assay (Promega). The settings on record: inhibition of Drak2 kinase activity, 2 h room temperature, activity range classes, read-out: IC50_Drak2. The format is biochemical.
For the compound `COc1cc(-c2cncc(-c3cc(NC(=O)CC4CCC4)cs3)n2)ccc1S(=O)(=O)N1CCOCC1` [Example B105, 2-cyclobutyl-N-(5-(6-(3-methoxy-4-(morpholinosulfonyl)phenyl)pyrazin-2-yl)thiophen-3-yl)acetamide], the IC50 is 0.011 to 0.1 µM.

`COc1cc(-c2cncc(-c3cc(NC(=O)CC4CCC4)cs3)n2)ccc1C(=O)N(C)OC` [Example B81, 4-(6-(4-(2-cyclobutylacetamido)thiophen-2-yl)pyrazin-2-yl)-N,2-dimethoxy-N-methylbenzamide]: the IC50 was 0.011 to 0.1 µM.

For `CCCCC(=O)Nc1csc(-c2cncc(-c3ccc(C(=O)N(C)C4CCN(C)CC4)c(OC)c3)n2)c1` [Example B59, 2-methoxy-N-methyl-N-(1-methylpiperidin-4-yl)-4-(6-(4-pentanamidothiophen-2-yl)pyrazin-2-yl)benzamide], the IC50 is less than 0.01 µM.

`COc1ccc(-c2cncc(-c3cc(NC(=O)C(C)C)cs3)n2)cc1OC` [Example A4, N-(5-(6-(3,4-dimethoxyphenyl)pyrazin-2-yl)thiophen-3-yl)isobutyramide]: the IC50 was 0.101 to 1 µM.

Regarding `COc1cc(-c2cncc(-c3cc(NC(=O)CC4CCCCC4)cs3)n2)ccc1C(=O)Nc1nnn[nH]1` [Example B14, 2-methoxy-4-(6-(4-(2-cyclohexylacetamido)thiophen-2-yl)pyrazin-2-yl)-N-(1H-tetrazol-5-yl)benzamide], the IC50 lay in the range of 0.101 to 1 µM.

In the case of `COc1cc(-c2cncc(-c3cc(NC(=O)CC4CCC4)cs3)n2)ccc1OCCc1cnn(C)c1` [Example 187, 2-Cyclobutyl-N-(5-(6-(3-methoxy-4-(2-(1-methyl-1H-pyrazol-4-yl)ethoxy)phenyl)pyrazin-2-yl)thiophen-3-yl) acetamide], the IC50 fell in the range of 0.011 to 0.1 µM.

Consider `CN1CCC(C(=O)N2CCOc3cc(-c4cncc(-c5cc(NC(=O)CC6CC6)cs5)n4)ccc32)CC1` [Example E2, 2-cyclopropyl-N-(5-(6-(4-(1-methylpiperidin-4-carbonyl)-3,4-dihydro-2H-benzo[b][1,4]oxazin-7-yl)pyrazine-2-yl)thiophene-3-yl) acetamide], for which the IC50 is 0.011 to 0.1 µM.

With `CCCCC(=O)Nc1csc(-c2cncc(-c3ccc(C(=O)N(C)C4CCN(C(C)C)CC4)c(OC)c3)n2)c1` [Example B68, N-(1-isopropylpiperidin-4-yl)-2-methoxy-N-methyl-4-(6-(4-pentanamidothiophen-2-yl)pyrazin-2-yl)benzamide], the IC50 was less than 0.01 µM.

Consider `CCCCC(=O)Nc1csc(-c2cncc(-c3cccc(C#N)c3)n2)c1` [Example 198, N-{5-[6-(3-cyanophenyl)pyrazin-2-yl]thiophen-3-yl} pentanamide], for which the IC50 was in the range of 0.101 to 1 µM.

For `CCCCCCCC(=O)Nc1csc(-c2cncc(-c3ccc(C(=O)Nc4nnn[nH]4)c(OC)c3)n2)c1` [Example B18, 2-methoxy-4-(6-(4-octanamidothiophen-2-yl)pyrazin-2-yl)-N-(1H-tetrazol-5-yl)benzamide], the IC50 was more than 10 µM.

`CCCCC(=O)Nc1csc(-c2cncc(-c3ccc(S(C)(=O)=O)cc3)n2)c1` [Example A40, N-(5-(6-(4-(methylsulfonyl)phenyl)pyrazin-2-yl)thiophen-3-yl)pentanamide]: the IC50 is 0.101 to 1 µM.

In the case of `CCCCC(=O)Nc1csc(-c2cncc(-c3ccc(O)c(OC)c3)n2)c1` [Example 181, N-{5-[6-(4-hydroxy-3-methoxyphenyl)pyrazin-2-yl]thiophen-3-yl}pentanamide], the IC50 is 0.011 to 0.1 µM.

For `CCCCNC(=O)c1csc(-c2cncc(-c3ccc(OC)c(OC)c3)n2)c1` [Example 182, N-butyl-5-[6-(3,4-dimethoxyphenyl)pyrazin-2-yl] thiophen-3-formamide], the IC50 is 0.101 to 1 µM.

`COc1cc(-c2cncc(-c3cc(NC(=O)CC4CCC4)cs3)n2)ccc1OCC(=O)N1CCN(C2CCN(C)CC2)CC1` [Example 192, 2-Cyclobutyl-N-(5-{6-[3-methoxy-4-({2-[4-(1-methylhexahydropyridin-4-yl)piperazin-1-yl]-2-oxoethyl}oxy)phenyl]pyrazin-2-yl}thiophen-3-yl) acetamide]: the IC50 was in the range of 0.011 to 0.1 µM.

`CCCCC(=O)Nc1cc(-c2cncc(-c3ccc(S(C)(=O)=O)c(OC)c3)n2)sc1C` [Example A45, N-(5-(6-(3-methoxy-4-(methylsulfonyl)phenyl)pyrazin-2-yl)-2-methylthiophen-3-yl)pentanamide]: the IC50 is 1 to 10 µM.

In the case of `COc1cc(-c2cncc(-c3cc(NC(=O)C4CCCCC4)cs3)n2)ccc1C(=O)O` [Example B6, 4-(6-(4-(cyclohexanecarboxamido)thiophen-2-yl)pyrazin-2-yl)-2-methoxybenzoic acid], the IC50 lay within 0.101 to 1 µM.

Turning to `COc1cc(-c2cncc(-c3cc(NC(=O)CC4CC(F)(F)C4)cs3)n2)ccc1C(=O)N(C)C1CC2(C1)CN(C)C2` (centres unmarked) [Example 202, 4-[6-(4-{[2-(3,3-difluorocyclobutyl)acetyl]amino}thiophen-2-yl)pyrazin-2-yl]-2-methoxy-N-methyl-N-(2-methyl-2-azaspiro [3.3]hept-6-yl) benzamide], the IC50 fell in the range of 0.011 to 0.1 µM.

As for `COc1ccc(-c2cncc(-c3cc(NC(C)=O)cs3)n2)cc1OC` [Example A3, N-(5-(6-(3,4-dimethoxyphenyl)pyrazin-2-yl)thiophen-3-yl)acetamide], the IC50 lay within 0.101 to 1 µM.

Take `O=C(Nc1csc(-c2cncc(-c3ccc(F)c(F)c3)n2)c1)C1CCC1` [Example A28, N-(5-(6-(3,4-difluorophenyl)pyrazin-2-yl)thiophen-3-yl)cyclobutanecarboxamide]: the IC50 is 1 to 10 µM.

Consider `CCCCC(=O)Nc1csc(-c2cncc(-c3ccc(Cl)c(OC)c3)n2)c1` [Example A16, N-(5-(6-(4-chloro-3-methoxyphenyl)pyrazin-2-yl)thiophen-3-yl)pentanamide], for which the IC50 was in the range of 1 to 10 µM.

Regarding `CCCCC(=O)Nc1csc(-c2cncc(-c3ccc(C(=O)Nc4nncs4)c(OC)c3)n2)c1` [Example B24, 2-methoxy-4-(6-(4-pentanamidothiophen-2-yl)pyrazin-2-yl)-N-(1,3,4-thiadiazol-2-yl)benzamide], the IC50 fell in the range of 1 to 10 µM.

In the case of `COc1cc(-c2cncc(-c3cc(NC(=O)CC4CCC4)cs3)n2)ccc1OCCN1CCN(C)CC1` [Example 173, 2-cyclobutyl-N-{5-[6-(3-methoxy-4-{[2-(4-methylpiperazin-1-yl)ethyl]oxy}phenyl)pyrazin-2-yl]thiophen-3-yl}acetamide], the IC50 was in the range of 0.011 to 0.1 µM.

Turning to `CCC1(CC(=O)Nc2csc(-c3cncc(-c4ccc(C(=O)N(C)C5CCN(C)CC5)c(OC)c4)n3)c2)CCC1` [Example B86, 4-(6-(4-(2-(1-ethylcyclobutyl)acetamido)thiophen-2-yl)pyrazin-2-yl)-2-methoxy-N-methyl-N-(1-methylpiperidin-4-yl)benzamide], the IC50 lay in the range of 0.101 to 1 µM.

Take `COc1cc(-c2cncc(-c3cc(NC(=O)CC4CCCC4)cs3)n2)ccc1C(=O)N1CCN(C)CC1` [Example B40, 2-cyclopentyl-N-(5-(6-(3-methoxy-4-(4-methylpiperazine-1-carbonyl)phenyl)pyrazin-2-yl)thiophen-3-yl)acetamide]: the IC50 is 0.011 to 0.1 µM.

With `CCCCC(=O)Nc1csc(-c2cncc(-c3ccc(C(=O)N4CCN(C5CCN(C)CC5)CC4)c(OC)c3)n2)c1` [Example B47, N-(5-(6-(3-methoxy-4-(4-(1-methylpiperidin-4-yl)piperazine-1-carbonyl)phenyl)pyrazin-2-yl)thiophen-3-yl)pentanamide], the IC50 is 0.011 to 0.1 µM.

Turning to `COc1cc(-c2cncc(-c3cc(NC(=O)CC4CCC4)cs3)n2)ccc1S(=O)(=O)N(C)CCN(C)C` [Example B101, 2-cyclobutyl-N-(5-(6-(4-(N-(2-(dimethylamino)ethyl)-N-methylsulfamoyl)-3-methoxyphenyl)pyrazin-2-yl)thiophen-3-yl)acetamide], the IC50 lay within 0.011 to 0.1 µM.

For `CCN(CC)C(=O)Nc1csc(-c2cncc(-c3ccc(OC)c(OC)c3)n2)n1` [Example D4, 3-(2-(6-(3,4-dimethoxyphenyl)pyrazin-2-yl)thiazol-4-yl)-1,1-diethylurea], the IC50 was in the range of 1 to 10 µM.

Take `COc1cc(-c2cncc(-c3cc(NC(=O)CC4CCCC4)cs3)n2)ccc1C(=O)Nc1cnn(C)c1OC` [Example B44, 4-(6-(4-(2-cyclopentylacetamido)thiophen-2-yl)pyrazin-2-yl)-2-methoxy-N-(5-methoxy-1-methyl-1H-pyrazol-4-yl)benzamide]: the IC50 fell in the range of 0.101 to 1 µM.

Turning to `COc1cc(-c2cncc(-c3cc(NC(=O)C(C)C4CCC4)cs3)n2)ccc1C(=O)N(C)C1CCN(C)CC1` (centres unmarked) [Example B95, 4-(6-(4-(2-cyclobutylpropanamido)thiophen-2-yl)pyrazin-2-yl)-2-methoxy-N-methyl-N-(1-methylpiperidin-4-yl)benzamide], the IC50 is 0.011 to 0.1 µM.

Turning to `CCCCC(=O)Nc1csc(-c2cncc(-c3ccc(OCCN4CCS(=O)(=O)CC4)c(OC)c3)n2)c1` [Example 180, N-{5-[6-(4-{[2-(1,1-dioxo-1 λ^6-1,4-thiomorpholin-4-yl)ethyl]oxy}-3-methoxyphenyl)pyrazin-2-yl]thiophen-3-yl} pentanamide], the IC50 was in the range of 0.011 to 0.1 µM.

As for `COc1cc(-c2cncc(-c3cc(NC(=O)Cc4ccco4)cs3)n2)ccc1C(=O)Nc1nnn[nH]1` [Example B13, 2-methoxy-4-(6-(4-(2-(furan-2-yl)acetamido)thiophen-2-yl)pyrazin-2-yl)-N-(1H-tetrazol-5-yl)benzamide], the IC50 was 0.101 to 1 µM.

Regarding `CCCCC(=O)Nc1csc(-c2cncc(-c3ccc(CN4CCOCC4)c(OC)c3)n2)c1` [Example B30, N-(5-(6-(3-methoxy-4-(morpholinomethyl)phenyl)pyrazin-2-yl)thiophen-3-yl)pentanamide], the IC50 lay within 0.101 to 1 µM.
